These results are taken from patent US11390592B2, “Method for producing the crystalline form of modification a of calcobutrol” (BAYER PHARMA AKTIENGESELLSCHAFT, priority 2016, dated 2022).

Where only a bound is given, the exact number is not on record here.

What all share (type): physicochemical
Data set [1] in a line: Solubility in water of the polymorphic modifications.
The nature of data set [2]: Storage stability and hygroscopicity of the polymorphic forms. The conditions noted are these: solid.
Data set [3] is described as follows: Hygroscopic properties: exposure to ambient air, water content by Karl-Fischer titration. The conditions noted are these: ca. 20° C., ca. 60% rel. humidity. The protocol:
The hygroscopic properties of three different samples of Calcobutrol were determined, one sample was prepared by the method described in Inorganic Chemistry 1997, 36, 6086-6093 (Example 5), one sample was prepared by the method described in WO2011/054827A1 (Example 6), and one sample was prepared by the method according to the present invention (Example 2).
2 g of each sample were exposed to ambient air (ca. 20° C., ca. 60% rel. humidity). The water content was measured by means of Karl-Fischer-Titration immediately after initial exposure (t=0), three hours (t=3 h), seven hours (t=7 h), and thirty one hours (t=31 h) after initial exposure.

As for `O=C([O-])CN1CCN(CC(=O)[O-])CCN(C(CO)C(O)CO)CCN(CC(=O)O)CC1.[Ca+2]` (stereo not drawn) [Modification A, calcium complex of dihydroxy-hydroxy-methylpropyl-tetraazacyclododecane-triacetic acid (calcobutrol)], in data set [1], the Solubility in water is greater than 500 mg/mL and the “solubility in water (appearance)” value is on record as “colourlessly soluble in water”. Also, the storage stability entry in data set [2] was “good storage stability”. Further, the storage stability entry in data set [2] (listed as calcobutrol of modification A) is on record as “storage-stable”. For the same compound, the “weight-% water t = 0” value in data set [3] (2 g exposed to ambient air, immediately after initial exposure) turned out to be 3.0%. For the same compound, the “weight-% water t = 7 h” value in data set [3] (ambient air, seven hours after initial exposure) turned out to be 4.3%. The “weight-% water t = 31 h” value in data set [3] (ambient air, thirty one hours after initial exposure) was determined as 4.3%. Further, the “weight-% water t = 3 h” value in data set [3] (ambient air, three hours after initial exposure) worked out at 4.5%.
Take `O=C([O-])CN1CCN(CC(=O)[O-])CCN(C(CO)C(O)CO)CCN(CC(=O)O)CC1.[Ca+2]` (stereo not drawn) [Modification B, calcium complex of dihydroxy-hydroxy-methylpropyl-tetraazacyclododecane-triacetic acid (calcobutrol)]: the hygroscopicity result in data set [2] is reported as “to a large extent tend to be hygroscopic”.
